The text below walks through data of patent publication US20060116390A1, “Hepatitis c virus inhibitors” (priority 2003, published 2006).

Counter-ions that a name gives are not always drawn. Like-named read-outs stand apart in the source and are kept apart here.

In this assay the test system is HCV proteins in Rep5.1 cells (replicon cell line). As to the kind of experiment: Inhibitory activity of HCV: cell-based ELISA in replicon cell line Rep5.1 (decrease of HCV proteins). Further details: species or system hepatitis C virus. As for the experimental part: In order to, screen and evaluate the anti-HCV therapeutic agents in cell level, the following experiments are carried out using a replicon cell line, Rep5.1 [Lohmann, et al., Replication of subgenomic hepatitis C virus RNAs in a hepatoma cell line. Science 285:110-113 (1999)].
Rep5.1 cells, the replicon cell line, are cultured in DMEM-10 containing 500 μg/ml of G418. The Rep5.1 cells in log phase are suspended by trypsin treatment, and 5000 cells are distributed to each well of a 96-well plate. After 4 hours when the cells are attached to the plate, the serially diluted drug is added to each well. After 48 hours, a part of the treated cells are observed by microscope, and MTT assay is carried out to evaluate the drug toxicity. The cytotoxicity is estimated in percentage based on the control containing no drug. After 72 hours, the remaining cells are fixed by methanol/acetone (50/50, v/v), and the decrease of HCV proteins is measured by using HCV antibody. The extent of decrease is estimated in percentage based on the control containing no drug, and the concentration of drug at which 50% of proteins is decreased is determined to be IC50. The compounds showing activity via this procedure are validated by Western blotting. In order to find out whether the decrease of HCV protein is related to the decrease of replicon RNA, Rep5.1 cell is treated with some selected drugs for 72 hours, RNA is purified, dot blotted, and hybridized with isotope labelled nucleic acid to determine the amounts of actin mRNA and replicon RNA, and finally the amount of RNA is compared.
Plasma samples from 300 persons positive to the hepatitis C antibody test were screened by antibody diagnosis kit produced by LG life Sciences Ltd. (LG HCD3.0 TMB) to select 40 plasma samples having high titer. Replicon cell line and Huh-7 cell line each were cultured in a 96-well cell culture plate, fixed by methanol/acetone (1:1) mixture, and blocked by 3% skimmed milk. The 40 plasma sanples selected above were 100-fold diluted and aided thereto, and the bound antibodies were probed by anti-Human goat antibody (Sigma) to which Horse Radish Peroxidase is attached. As a result, 12 plasma samples having low specificity to Huh-7 cell line, but high specificity to replicon cell line were obtained. These plasma samples were used in the following cell-based ELISA.
Rep5.1 cells were cultured in DMEM-10 containing 500 μg/ml of G418. The Rep5.1 cells in log phase were suspended by trypsin treatment, and 5000 cells were distributed to each well of a 96-well pate. After 4 hours for which the cells were attached to the plate, the serially diluted drug was added to each well. After 72 hours, the cells were fixed by methanol/acetone (50/50, v/v), and the decrease of HCV proteins was measured by using HCV antibody obtained as above. The extent of decrease was estimated in percentage based on the control containing no drug, and the concentration of drug at which 50% of proteins was decreased was determined to be IC50.
In general terms: In an ELISA, binding on a coated surface is turned into a signal by an enzyme label.

The mark [1] stands for this setting: Hepatitis C virus, 72 h, Rep5.1 cells, 72 hours with drug, concentration at which 50% of HCV proteins was decreased, Table 2, read-out: IC50.
Where [2] appears, read: Hepatitis C virus, 72 h, Rep5.1 cells, 72 hours with drug, decrease of HCV proteins measured by HCV antibody, Table 1, read-out: Level (IC50 values classified).

As usually defined, the IC50 is the concentration that gives 50% inhibition. Take `CC1=C(C(=O)OCc2cc(Br)cs2)CNC(=S)N1` [Compound 204, 6-methyl-2-thioxo-1,2,3,4-tetrahydro-pyrimidine-5-carboxylic acid 4-bromo-thiophen-2-ylmethyl ester]: the IC50 by setting is: under setting [1], less than 0.4 µM; under setting [2], less than 1 µM.

Take `CCOc1ccccc1COC(=O)C1=C(C)NC(=S)NC1` [Compound 66, 6-methyl-2-thioxo-1,2,3,4-tetrahydro-pyrimidine-5-carboxylic acid 2-ethoxy-benzyl ester]: the half-inhibitory concentration (IC50) by setting is: under setting [1], 0.5 µM; under setting [2], less than 1 µM.

Turning to `CC1=C(C(=O)OCCc2cccc(Cl)c2)C(COC(=O)NCCN(C)C)NC(=S)N1` (stereo not drawn) [86″, 4-(2-dimethylamino-ethylcarbamoyloxymethyl)-6-methyl-2-thioxo-1,2,3,4-tetrahydro-pyrimidine-5-carboxylic acid 2-(3-chloro-phenyl)-ethyl ester trifluoroacetate], the IC50 was 0.7 µM (Hepatitis C virus, 72 h) and less than 1 µM (Hepatitis C virus, 72 h, read-out: Level (IC50 values classified)).

Consider `COCCN(C)c1ccc(CCCOC(=O)C2=C(C)NC(=S)NC2CF)cc1` (stereo not drawn) [59′, 4-fluoromethyl-6-methyl-2-thioxo-1,2,3,4-tetrahydro-pyrimidine-5-carboxylic acid 3-{4-[(2-methoxy-ethyl)-methyl-amino]-phenyl}-propyl ester], for which the concentration for half-maximal inhibition (IC50) was 34 µM under setting [1] and greater than 20 µM under setting [2].

Consider `COc1ccccc1CCOC(=O)C1=C(C)NC(=S)NC1CF` (stereo not drawn) [42′, 4-fluoromethyl-6-methyl-2-thioxo-1,2,3,4-tetrahydro-pyrimidine-5-carboxylic acid 2-(2-methoxy-phenyl)-ethyl ester], for which the IC50 was 4.1 µM under setting [1] and 1 to 10 µM under setting [2].

Turning to `O=C(OCc1ccccc1)C1=C(Cc2ccccc2)NC(=S)NC1` [Compound 18, 6-benzyl-2-thioxo-1,2,3,4-tetrahydro-pyrimidine-5-carboxylic acid benzyl ester], the IC50 under setting [1] came to 5 µM and the half-inhibitory concentration (IC50) under setting [2] lay within 1 to 10 µM.

As to `CCNC(=O)OCC1NC(=S)NC(C)=C1C(=O)OCCCc1cccs1` (stereo not drawn) [20″, 4-ethylcarbamoyloxymethyl-6-methyl-2-thioxo-1,2,3,4-tetrahydro-pyrimidine-5-carboxylic acid 3-thiophen-2-yl-propyl ester], the IC50 under setting [1] amounted to 33.3 µM and the IC50 under setting [2] was greater than 20 µM.

For `CC1=C(C(=O)OCCc2cccc([N+](=O)[O-])c2)C(COC(=O)c2ccccc2)NC(=S)N1` (stereo not drawn) [89″, 4-benzoyloxymethyl-6-methyl-2-thioxo-1,2,3,4-tetrahydro-pyrimidine-5-carboxylic acid 2-(3-nitro-phenyl)-ethyl ester], the IC50 is 6.8 µM under setting [1] and 1 to 10 µM under setting [2].

As for `CCCCCCC#CCCOC(=O)C1=C(C)NC(=S)NC1` [Compound 200, 6-methyl-2-thioxo-1,2,3,4-tetrahydro-pyrimidine-5-carboxylic acid dec-3-inyl ester], where the note is “Rep5.1 cells, 72 hours with drug, concentration at which 50% of HCV proteins was decreased, Table 2, read-out: IC50”, the concentration for half-maximal inhibition (IC50) is less than 0.4 µM.

On to `CC1=C(C(=O)OC2CCCCC2)CNC(=S)N1` [Compound 37, 6-methyl-2-thioxo-1,2,3,4-tetrahydro-pyrimidine-5-carboxylic acid cyclohexyl ester], for which the IC50 under setting [1] is 4 µM and the IC50 under setting [2] fell in the range of 1 to 10 µM.

On to `O=C(OCCc1ccsc1)C1=CNC(=S)NC1CF` (stereo not drawn) [Compound 271, 4-fluoromethyl-2-thioxo-1,2,3,4-tetrahydro-pyrimidine-5-carboxylic acid 2-thiophen-3-yl-ethyl ester], for which the IC50 runs as follows: under setting [1], 9 µM; under setting [2], 1 to 10 µM.

Turning to `CC1=C(C(=O)OCCCc2ccsc2)C(CF)NC(=S)N1` (stereo not drawn) [53′, 4-fluoromethyl-6-methyl-2-thioxo-1,2,3,4-tetrahydro-pyrimidine-5-carboxylic acid 3-thiophen-3-yl-propyl ester], the half-maximal inhibitory concentration (IC50) was 18 µM under setting [1] and 10 to 20 µM under setting [2].

For `COC(=O)CCCCCCCCCOC(=O)C1=C(C)NC(=S)NC1` [Compound 198, 6-methyl-2-thioxo-1,2,3,4-tetrahydro-pyrimidine-5-carboxylic acid 9-methoxycarbonyl-nonyl ester], the IC50 by setting is: under setting [1], 10 µM; under setting [2], 1 to 10 µM.

For the molecule `CC1=C(C(=O)OCCc2sccc2C)CNC(=S)N1` [Compound 257, 6-methyl-2-thioxo-1,2,3,4-tetrahydro-pyrimidine-5-carboxylic acid 2-(3-methyl-thiophen-2-yl)-ethyl ester], the half-inhibitory concentration (IC50) reads like this: under setting [1], less than 0.4 µM; under setting [2], less than 1 µM.

Take `CC1=C(C(=O)OCC(F)(F)c2ccsc2)CNC(=S)N1` [71′, 6-methyl-2-thioxo-1,2,3,4-tetrahydro-pyrimidine-5-carboxylic acid 2,2-difluoro-2-thiophen-3-yl-ethyl ester]: the IC50 is 0.6 µM under setting [1] and less than 1 µM under setting [2].

Regarding `COc1ccc(Br)cc1COC(=O)C1=C(C)NC(=S)NC1` [Compound 185, 6-methyl-2-thioxo-1,2,3,4-tetrahydro-pyrimidine-5-carboxylic acid 5-bromo-2-methoxy-benzyl ester], the half-inhibitory concentration (IC50) is 0.4 µM under setting [1] and less than 1 µM under setting [2].

Regarding `CC1=C(C(=O)OCc2ccn(S(=O)(=O)c3ccc(C)cc3)c2)CNC(=S)N1` [Compound 230, 6-methyl-2-thioxo-1,2,3,4-tetrahydro-pyrimidine-5-carboxylic acid 1-(toluene-4-sulfonyl)-1H-pyrrol-3-ylmethyl ester], the IC50 under setting [1] is less than 0.4 µM and the half-maximal inhibitory concentration (IC50) under setting [2] is less than 1 µM.

As to `CC1=C(C(=O)OCc2nc3ccccc3o2)CNC(=S)N1` [Compound 238, 6-methyl-2-thioxo-1,2,3,4-tetrahydro-pyrimidine-5-carboxylic acid benzoxazol-2-ylmethyl ester], the half-inhibitory concentration (IC50) is 3 µM under setting [1] and 1 to 10 µM under setting [2].

For the molecule `CC1=C(C(=O)OCCc2cc(Cl)ccc2[N+](=O)[O-])C(CO)NC(=S)N1` (stereo not drawn) [54″, 4-hydroxymethyl-6-methyl-2-thioxo-1,2,3,4-tetrahydro-pyrimidine-5-carboxylic acid 2-(5-chloro-2-nitro-phenyl)-ethyl ester], the IC50 reads like this: under setting [1], 8 µM; under setting [2], 1 to 10 µM.

Turning to `CCOc1ccccc1CCOC(=O)C1=C(C)NC(=S)NC1CS(=O)(=O)C(C)(C)C` (stereo not drawn) [30″, 6-methyl-4-(2-methyl-propane-2-sulfonylmethyl)-2-thioxo-1,2,3,4-tetrahydro-pyrimidine-5-carboxylic acid 2-(2-ethoxy-phenyl)-ethyl ester], the IC50 by setting is: under setting [1], 50 µM; under setting [2], greater than 20 µM.

As for `CC1=C(C(=O)OCC2(c3ccc(Cl)cc3)CC2)C(CO)NC(=S)N1` (stereo not drawn) [52″, 4-hydroxymethyl-6-methyl-2-thioxo-1,2,3,4-tetrahydro-pyrimidine-5-carboxylic acid 1-(4-chloro-phenyl)-cyclopropylmethyl ester], the half-maximal inhibitory concentration (IC50) under setting [1] stood at 10 µM and the IC50 under setting [2] was 1 to 10 µM.

`COc1ccc(COC(=O)C2=C(C)NC(=S)NC2)cc1C` [Compound 176, 6-methyl-2-thioxo-1,2,3,4-tetrahydro-pyrimidine-5-carboxylic acid 4-methoxy-3-methyl-benzyl ester]: the IC50 was 2.7 µM under setting [1] and 1 to 10 µM under setting [2].

With `CC1=C(C(=O)OCCCCSc2nc3ccccc3s2)C(CF)NC(=S)N1` (stereo not drawn) [55′, 4-fluoromethyl-6-methyl-2-thioxo-1,2,3,4-tetrahydro-pyrimidine-5-carboxylic acid 4-(benzothiazol-2-ylsulfanyl)-butyl ester], the IC50 was 1.6 µM under setting [1] and 1 to 10 µM under setting [2].
